Source: patent US20130237444A1, “GBM MOLECULAR CONTEXTS ASSOCIATED WITH PATIENT SURVIVAL” (Translational Genomics Research Institute, priority 2012, published 2013)

How the values were obtained:
[1] = tested on: Proneural-mapped xenografts; assay: Survival of drug-treated GBM mouse xenografts vs control, Proneural-mapped; assay type: in vivo; conditions: Proneural subtype, total 2 xenografts; for frequency of xenograft models with survival difference NS (statistically Not Significant): Cox regression; for frequency of xenograft models with significantly longer survival than control (treatment-sensitive) / frequency of xenograft models with significantly shorter survival than control (treatment-resistant): Cox regression p-value threshold 0.05
Description: (§1) Forty GBM mouse xenografts were used. […] These xenografts were also mapped to the four molecular subtypes: proneural, neural, classical, and mesenchymal.
(§2) Characterizing drug responsiveness for GBM subtypes using the mapped xenografts: Out of 40 xenograft models, 21 models were treated with 4 different treatments and their survival rates were compared against control groups.

[2] = tested on: Classical-mapped xenograft models; assay: Survival of drug-treated GBM mouse xenografts vs control, Classical-mapped; conditions: for frequency of xenograft models with survival difference NS (statistically Not Significant) / frequency of xenograft models with significantly longer survival than control (treatment-sensitive) / frequency of xenograft models with significantly shorter survival than control (treatment-resistant): Classical subtype, total 2 xenografts; for frequency of xenograft models with survival difference NS (statistically Not Significant): Cox regression; for frequency of xenograft models with significantly longer survival than control (treatment-sensitive) / frequency of xenograft models with significantly shorter survival than control (treatment-resistant): Cox regression p-value threshold 0.05
Description: as §1, §2

[3] = tested on: Mesenchymal-mapped xenograft models; assay: Survival of drug-treated GBM mouse xenografts vs control, Mesenchymal-mapped; conditions: for frequency of xenograft models with survival difference NS (statistically Not Significant) / frequency of xenograft models with significantly longer survival than control (treatment-sensitive) / frequency of xenograft models with significantly shorter survival than control (treatment-resistant): Mesenchymal subtype, total 4 xenografts; for frequency of xenograft models with survival difference NS (statistically Not Significant): Cox regression; for frequency of xenograft models with significantly longer survival than control (treatment-sensitive) / frequency of xenograft models with significantly shorter survival than control (treatment-resistant): Cox regression p-value threshold 0.05; for subtype-specific drug response (sensitivity or resistance): Mesenchymal-mapped xenograft models, survival analysis
Description: as §1, §2

[4] = tested on: Neural-mapped xenograft models; assay: Survival of drug-treated GBM mouse xenografts vs control, Neural-mapped; assay type: in vivo; conditions: Neural subtype, total 3 xenografts; for frequency of xenograft models with survival difference NS (statistically Not Significant): Cox regression; for frequency of xenograft models with significantly longer survival than control (treatment-sensitive) / frequency of xenograft models with significantly shorter survival than control (treatment-resistant): Cox regression p-value threshold 0.05
Description: as §1, §2

| Compound | frequency of xenograft models with survival difference NS (statistically Not Significant) [1] | frequency of xenograft models with significantly longer survival than control (treatment-sensitive) [1] | frequency of xenograft models with significantly shorter survival than control (treatment-resistant) [1] | frequency of xenograft models with survival difference NS (statistically Not Significant) [2] | frequency of xenograft models with significantly longer survival than control (treatment-sensitive) [2] | frequency of xenograft models with significantly shorter survival than control (treatment-resistant) [2] | subtype-specific drug response (sensitivity or resistance) ([2]; Classical-mapped xenograft models, survival analysis) | frequency of xenograft models with survival difference NS (statistically Not Significant) [3] | frequency of xenograft models with significantly longer survival than control (treatment-sensitive) [3] | frequency of xenograft models with significantly shorter survival than control (treatment-resistant) [3] | subtype-specific drug response (sensitivity or resistance) [3] | frequency of xenograft models with survival difference NS (statistically Not Significant) [4] | frequency of xenograft models with significantly longer survival than control (treatment-sensitive) [4] | frequency of xenograft models with significantly shorter survival than control (treatment-resistant) [4] |
| --- | --- | --- | --- | --- | --- | --- | --- | --- | --- | --- | --- | --- | --- | --- |
| CNC(=O)c1cc(Oc2ccc(NC(=O)Nc3ccc(Cl)c(C(F)(F)F)c3)cc2)ccn1 [Sorafenib, sorafenib] | 1 | 1 | 0 | 1 | 0 | 1 | resistance | 1 | 1 | 2 | resistance | 3 | 0 | 0 |
| Cn1c(=O)n(-c2ccc(C(C)(C)C#N)cc2)c2c3cc(-c4cnc5ccccc5c4)ccc3ncc21 [BEZ235] | 1 | 1 | 0 | 2 | 0 | 0 | – | 3 | 0 | 1 | resistance | 3 | 0 | 0 |
| Cn1nnc2c(C(N)=O)ncn2c1=O [TMZ, temozolomide] | 1 | 1 | 0 | 1 | 1 | 0 | – | 2 | 2 | 0 | – | 2 | 1 | 0 |
